IC50 data for 11 molecules are collected here from patent US11390609B2, “Rho-associated protein kinase inhibitor, pharmaceutical composition comprising same, and preparation method and use thereof” (BEIJING TIDE PHARMACEUTICAL CO., LTD., priority 2017, dated 2022).

One assay has as its target ROCK1 (Homo sapiens (Human), UniProt Q13464). Kind of assay: ROCK1 kinase IC50 assay (biological test method similar to the ROCK2 assay). The format is biochemical. The essentials: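 Compound dilution series (9 concentrations, top solution 10000 nM, DMSO-containing buffer) incubated 2 h at room temperature with kinase, STK-S2 substrate and ATP (5× working solutions of 1.5 µM each). Phosphorylation detected by HTRF (665/615 nm emission ratio) after 1 h; inhibition relative to full-reaction and kinase-free wells, fitted for IC50.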

A further assay concerns the target ROCK2 (Homo sapiens, UniProt O75116). Description: ROCK2 kinase IC50 assay (CISBIO HTRF KinEASE-STK S2 kit). The format is biochemical. The note with it: incubated at room temperature for 2 hours. As to the method:
The kinase IC50 was determined by a commercialized CISBIO kinase detection kit, HTRF KinEASE-STK S2 kit (62ST2PEC). ROCK2 (01-119) employed in the reaction was purchased from Carna Biosciences.
Before the assay, the following working solutions as needed were formulated with corresponding reagents according to the instruction of the kinase detection kit: 1×kinase buffer, 5×STK-52 substrate working solution (1.5 μM) and 5×ATP working solution (1.5 μM), 5×ROCK2 kinase working solution, 4×Streptavidin-XL665 working solution, and 4×STK-Ab-Cryptate 2 detection solution. Then the assay was performed according to the following procedure.
A solution of a compound at a concentration of 10000 nM was prepared with the 1×kinase buffer containing 2.5% DMSO. Gradient dilution of the solution of the compound was performed with the kinase buffer containing DMSO, so as to obtain solutions of a test compound at 9 different concentrations. In addition to wells of test compounds, a positive well (containing all the reagents except the compound) and a negative well (containing all the reagents except the test compound and kinase) were set. Except for the control wells (positive and negative wells), a solution of a test compound (4 μL) was added to each of the reaction wells, and a solution of 2.5% DMSO was added to the control wells. Then the substrate ([…], 2 μL. 5×STK-S2 substrate working solution) was added to each of the reaction wells. The 5×ROCK2 kinase working solution (2 μL, containing 1.4 ng ROCK2 kinase) was added to each of the reaction wells except for the negative well, the volume of which was made up with the 1×kinase buffer (2 μL). The 5×ATP working solution (2 μL) was added to each of the reaction wells, and the mixtures were incubated at room temperature for 2 hours. After the kinase reaction was complete, the 4×Streptavidin-XL665 working solution was added to each of the reaction wells, the solutions were mixed, followed by immediate addition of the 4×STK-Ab-Cryptate 2 detection solution (5 μL), and the mixtures were incubated at room temperature for 1 hour. The fluorescence signal was read on ENVISION (Perkinelmer) (excitation wavelength: 320 nm, and emission wavelength: 665 nm and 615 nm). The inhibitory rate in each well was calculated based on the fluorescence intensity value: ER (Emission Ratio)=(fluorescence intensity at 665 nm/fluorescence intensity at 615 nm); inhibitory rate=(ERpositive−ERtest compound)/(ERpositive−ERnegative)*100%. Curves were plotted and fitted to obtain the median inhibitory concentration (IC50) of each teat compound with the PRISM 5.0 software.
Background: Time-resolved FRET reads energy transfer from a long-lived donor to a nearby acceptor.

Sequence of ROCK1 (Q13464 whole entry, species assumed): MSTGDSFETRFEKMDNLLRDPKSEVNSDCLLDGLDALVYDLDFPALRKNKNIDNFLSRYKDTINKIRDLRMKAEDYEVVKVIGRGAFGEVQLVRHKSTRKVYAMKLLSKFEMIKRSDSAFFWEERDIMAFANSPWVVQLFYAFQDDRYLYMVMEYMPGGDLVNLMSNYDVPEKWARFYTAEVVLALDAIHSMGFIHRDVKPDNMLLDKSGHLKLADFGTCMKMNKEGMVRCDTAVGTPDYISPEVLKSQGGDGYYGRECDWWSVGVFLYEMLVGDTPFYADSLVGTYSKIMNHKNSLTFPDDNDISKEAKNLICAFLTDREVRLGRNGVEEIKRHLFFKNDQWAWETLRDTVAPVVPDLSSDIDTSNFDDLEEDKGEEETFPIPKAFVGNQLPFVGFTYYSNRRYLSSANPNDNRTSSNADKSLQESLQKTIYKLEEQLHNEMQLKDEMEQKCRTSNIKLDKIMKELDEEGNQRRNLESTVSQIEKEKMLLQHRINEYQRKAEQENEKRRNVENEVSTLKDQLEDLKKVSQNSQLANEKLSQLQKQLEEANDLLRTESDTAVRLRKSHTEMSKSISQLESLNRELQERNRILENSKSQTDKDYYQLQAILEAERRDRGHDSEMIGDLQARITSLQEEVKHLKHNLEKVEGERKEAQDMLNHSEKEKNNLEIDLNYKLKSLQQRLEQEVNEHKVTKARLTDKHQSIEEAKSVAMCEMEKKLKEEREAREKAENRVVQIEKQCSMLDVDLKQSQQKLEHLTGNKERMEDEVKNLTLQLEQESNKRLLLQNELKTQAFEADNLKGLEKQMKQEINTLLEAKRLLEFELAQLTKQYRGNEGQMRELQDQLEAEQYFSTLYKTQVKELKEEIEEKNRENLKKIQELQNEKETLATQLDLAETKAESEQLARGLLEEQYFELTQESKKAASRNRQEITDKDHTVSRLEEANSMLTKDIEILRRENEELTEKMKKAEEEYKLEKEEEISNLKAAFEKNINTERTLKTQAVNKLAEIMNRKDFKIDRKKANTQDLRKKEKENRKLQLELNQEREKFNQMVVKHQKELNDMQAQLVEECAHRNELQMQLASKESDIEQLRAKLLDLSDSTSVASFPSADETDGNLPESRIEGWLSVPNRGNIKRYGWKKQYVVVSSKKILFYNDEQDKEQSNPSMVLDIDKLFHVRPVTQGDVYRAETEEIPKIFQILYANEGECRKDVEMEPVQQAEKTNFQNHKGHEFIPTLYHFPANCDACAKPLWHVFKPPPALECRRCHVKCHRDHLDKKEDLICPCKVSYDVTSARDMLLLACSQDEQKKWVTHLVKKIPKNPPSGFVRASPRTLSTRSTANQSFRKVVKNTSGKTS

`Cn1c(C(=O)Nc2ccncc2Cl)cc2ccc(-c3nccc(Nc4ccc5[nH]ncc5c4)n3)cc21` [TDI01841, 6-(4-((1H-indazol-5-yl)amino)-pyrimidin-2-yl)-N-(3-chloropyridin-4-yl)-1-methyl-1H-indole-2-carboxamide]: the IC50 is 1000 nM against ROCK1 and 11 nM against ROCK2.

`O=C1c2cc(-c3ncc(F)c(Nc4ccc(-c5cn[nH]c5)cc4)n3)ccc2CN1CC1CC(F)(F)C1` [TDI01590, 6-(4-((4-(1H-pyrazol-4-yl)phenyl)amino)-5-fluoropyrimidin-2-yl)-2-((3,3-difluorocyclobutyl)methyl)isoindolin-1-one]: the figures for the IC50 at ROCK1 and against ROCK2 were more than 10000 nM and 266 nM, respectively.

`CC(C)NC(=O)N1Cc2ccc(-c3nc(Nc4ccc(-c5cn[nH]c5)cc4)c4occc4n3)cc2C1` [TDI01861, 5-(4-((4-(1H-pyrazol-4-yl)phenyl)amino)furo[3,2-d]pyrimidin-2-yl)-N-isopropylisoindoline-2-carboxamide]: the values for the IC50 against ROCK1 and against ROCK2 were more than 10000 nM and 41 nM, respectively.

`Cn1c(C(=O)N2CCC(F)(F)C2)cc2ccc(-c3nccc(Nc4ccc(-c5cn[nH]c5)cc4)n3)cc21` [TDI01507, (6-(4-((4-(1H-pyrazol-4-yl)phenyl)amino)pyrimidin-2-yl)-1-methyl-1H-indol-2-yl)(3,3-difluoropyrrolidin-1-yl)methanone]: the values for the IC50 against ROCK1 and against ROCK2 were 6840 nM and 113 nM, respectively.

Regarding `Cn1c(C(=O)N2CC(F)(F)C2)cc2ccc(-c3nc4c(c(Nc5ccc(-c6cn[nH]c6)cc5)n3)CCC4)cc21` [TDI01960, (6-(4-((4-(1H-pyrazol-4-yl)phenyl)amino)-6,7-dihydro-5H-cyclopenta[d]pyrimidin-2-yl)-1-methyl-1H-indol-2-yl)(3,3-difluoroazetidin-1-yl)methanone], the values for the IC50 on ROCK1 and against ROCK2 were more than 10000 nM and 50 nM, respectively.

For `CN(C(=O)c1cc2ccc(-c3nccc(Nc4ccc5[nH]ncc5c4)n3)cc2s1)C1CCOC1` (stereo not shown) [TDI01392, 6-(4-((1H-indazol-5-yl)amino)pyrimidin-2-yl)-N-methyl-N-(tetrahydrofuran-3-yl)ben-zo[b]thiophene-2-carboxamide], the IC50 at ROCK1 was more than 10000 nM; against ROCK2, 172 nM.

With `O=C(OC1CC(F)(F)C1)N1CCc2cc(-c3nccc(Nc4ccc(-c5cn[nH]c5)cc4)n3)ccc2C1` [TDI01621, 3,3-difluorocyclobutyl 6-(4-((4-(1H-pyrazol-4-yl)phenyl)amino)pyrimidin-2-yl)-3,4-dihydroisoquinoline-2(1H)-carboxylate], the IC50 against ROCK1 is more than 10000 nM; on ROCK2, 219 nM.

Take `CC(C)NC(=O)c1cc2ccc(-c3nc(Nc4ccc(-c5cn[nH]c5)cc4)c4occc4n3)cc2[nH]1` [TDI01864, 6-(4-((4-(1H-pyrazol-4-yl)phenyl)ami-no)furo[3,2-d]pyrimidin-2-yl)-N-isopropyl-1H-indole-2-carboxamide]: the values for the IC50 on ROCK1 and at ROCK2 were 3000 nM and 30 nM, respectively.

As for `CC(=O)N1Cc2nc(-c3ccc4c(c3)CN(C(=O)C3CC(F)(F)C3)C4)nc(Nc3ccc(-c4cn[nH]c4)cc3)c2C1` [TDI01587, 1-(4-((4-(1H-pyrazol-4-yl)phenyl)amino)-2-(2-(3,3-difluorocyclobutane-1-carbonyl)isoindolin-5-yl)-5,7-dihydro-6H-pyrrolo[3,4-d]pyrimidin-6-yl)ethan-1-one], the values for the IC50 on ROCK1 and against ROCK2 were more than 10000 nM and 25 nM, respectively.

In the case of `CC1(F)CN(C(=O)c2cc3ccc(-c4nccc(Nc5ccc(-c6cn[nH]c6)cc5)n4)cc3[nH]2)C1` [TDI01441, (6-(4-((4-(1H-pyrazol-4-yl)phenyl)amino)pyrimidin-2-yl)-1H-indol-2-yl)(3-fluoro-3-methylazetidin-1-yl)methanone], the IC50 on ROCK1 came to 6070 nM; against ROCK2 it was 181 nM.

With `CC(=O)C1CN(C(=O)c2cc3ccc(-c4nccc(Nc5ccc(-c6cn[nH]c6)cc5)n4)cc3n2C)C1` [TDI01517, 1-(1-(6-(4-((4-(1H-pyrazol-4-yl)phenyl)amino)pyrimidin-2-yl)-1-methyl-1H-indole-2-caibonyl)azetidin-3-yl)ethan-1-one], the IC50 is more than 10000 nM against ROCK1 and 92 nM on ROCK2.

By IC50 is commonly meant the point on the concentration scale where inhibition reaches its midpoint. A lower IC50 goes with inhibition by little substance.
